Results as given in patent US20260085315A1, “POLYNUCLEOTIDE COMPOSITIONS AND METHODS FOR TREATMENT OF CANCER” (APTAH BIO, INC., priority 2023, published 2026).
Several values for one entry are separate records, joined by “and”; a condition that tells them apart may be missing. Equal entries are not always repeated. Entries after “also recorded” stand apart in the source; their conditions may differ.

Tests used:
Assay type in all cases: in vivo, athymic nude mice
[1] = tested on: Human Glioblastoma Cancer (U-87MG) xenograft; test: Histopathology of tumor samples with scoring; parameters: key: 4: Minimal; 3: Mild; 2: Moderate; 1: Prominent; details: individual animals; G3 APT20TTMG, G2 TMZ
From the text: (§1) The fixed tissues were processed for routine paraffin embedding followed by sectioning (3-6 micron). The sections were stained with hematoxylin and eosin. The prepared slides were examined under microscope by the study pathologist to record histopathological findings in tumor samples, related to capsule formation, cell type, connective tissue stroma, apoptosis, necrosis, lipid content, nucleus-to-cytoplasmic (N:C) ratio, nuclei mitotic figures, tumor grade, and level of differentiation. Each histopathological finding and tumor volume were assigned a score ranging from 1 to 4 (Table 7). The sum of these scores for each sample was used to infer the tumor aggressiveness.

[2] = tested on: Human Glioblastoma Cancer (U-87MG) xenograft; test: Histopathology of tumor samples with scoring; parameters: key: 1: Minimal Fibrosis; 2: Mild Fibrosis; 3: Moderate Fibrosis; 4: Prominent; details: individual animals; G3 APT20TTMG, G2 TMZ
From the text: as §1

[3] = tested on: Human Glioblastoma Cancer (U-87MG) xenograft; test: Histopathology of tumor samples with scoring; parameters: key to Score: Grade: 1: I; 2: II; 3: III; 4: IV; key to Score: Connective tissue stroma: 1: Minimal Fibrosis; 2: Mild Fibrosis; 3: Moderate Fibrosis; 4: Prominent; key to Score: N:C ratio: 3: High; 2: Low to High; 1: Low; key to Score: Apoptosis / Score: Lipid content: 4: Minimal; 3: Mild; 2: Moderate; 1: Prominent; details: individual animals; G3 APT20TTMG, G2 TMZ
From the text: as §1

[4] = tested on: Human Glioblastoma Cancer (U-87MG) xenograft; test: Human glioblastoma xenograft tumor growth; details: for tumor reduction in relation to the negative control: APT20TTMG 20 mg/kg i.v. q3d, TMZ 5 mg/kg p.o. daily
Experimental: Subcutaneous inoculation of the tumorigenic Human Glioblastoma Cancer Cell line (U-87MG) results in the formation of solid tumor in athymic nude mice. Under pathogen free conditions, the tumor retains its own characteristics and grows using the growth factors supplied by the host animal. The ability of administered ASMO1 to inhibit the growth of tumor can be a valuable tool to evaluate its efficacy as an anti-tumor agent. Measurement of tumor size at defined intervals of time generates data that can be used to calculate various end point parameters derived from tumor and understand the potency of the test compounds.
Human glioblastoma cancer cells (U-87MG) were cultured and expanded in EMEM (Eagle's Minimum Essential Medium) supplemented with 10% Fetal Bovine Serum (FBS) at 37° C. and 5% CO2. The cells growing at log phase were harvested by trypsinization and centrifuged for 3 minutes at 800 rpm to form a pellet. The pellet was further washed with PBS. Cell suspension stock was prepared to obtain the required cell count. Before cell inoculation, cell viability was determined using trypan blue. 25 μL of cell suspension was stained with 25 μL of trypan blue and viable cells were counted using Neubauer's chamber. Cell number was adjusted by adding serum free media to achieve desired concentration, i.e., 10×10^7/mL.
Cells were diluted such that the concentration of the cells was 10 million cells/100 μL of serum free medium. Overnight thawed Matrigel and cells with medium were mixed 1:1 and a total volume of 200 μL was injected subcutaneously to the donor animals (n=5) at flank region.
Donor animals were monitored for solid tumor growth for at least 3-4 weeks. Tumor size was measured using digital caliper (MITUTOYO, Japan, CP-15Mx) and volume was calculated by using the formula: (L*W2)/2. Once the tumor reached required size ˜500 mm^3, the donor animals were humanely sacrificed, the tumor was harvested and fragmented into ˜30 mg size and implanted subcutaneously to experimental animals (n=50) using the device. All the animals was monitored alternate day for tumor growth/size.
Once the tumor size reached ˜100 mm^3, animals were selected and randomized by stratification method using tumor size into three groups (G1-G3). Treatment for G1-G3 was initiated at this stage. Each group was comprised of 8 animals.
• G1 was served as vehicle control group and treated with normal saline at the dose of 5 mL/kg, daily, intravenously for 3 weeks. • G2 was served as Reference Item treated group and treated with TMZ at the dose of 5 mg/kg, p.o., daily for 3 weeks. • G3 was treated with APT20TTMG at the dose of 20 mg/kg, intravenously, every third day (q3d) for 3 weeks.
Body weight and tumor size were measured weekly twice using digital caliper. At termination, blood was collected through retro-orbital route. Serum/plasma was separated and stored at deep freezer (−20° C.). Post blood collection, animals were humanely sacrificed by CO2 asphyxiation as per latest guidelines issued by CPCSEA. All the vital organ (brain, kidney, liver, lungs, heart) and tumor were dissected out. Vital organs were fixed in 10% NBF and stored. Tumor tissue was dissected out, weighed and portion of tumor tissue was fixed in 10% NBF and another portion is snap frozen and stored at deep freezer (−80° C.).
As shown in FIG. 34A-C, tumor fragments from the U-87MG cell line were implanted in the animals and once the tumor size reached ˜100 mm^3 animals were randomized into 3 experimental groups (G1, G2, and G3). G1: Vehicle, (G2) Reference Item Temozolomide, and (G3) APT20TTMG for a total of 22 days. (A) The tumor volume of the animals was measured twice/a week. (B) Animals were weighed throughout the experiment and the change in weight gain compared to pre-treatment weight was plotted. (C) After the euthanasia of the animals, the tumors were removed and weighed.

[5] = tested on: Human Glioblastoma Cancer (U-87MG) xenograft; test: Histopathology of tumor samples with scoring; parameters: key: 1: Few; 2: Moderate; 3: Large; details: individual animals; G3 APT20TTMG, G2 TMZ
From the text: as §1

Cn1nnc2c(C(N)=O)ncn2c1=O [TMZ, Temozolomide, reference compound]
Score: Necrosis [1]: 3 | Score: Necrosis [2]: 4 | Histopathological findings: Grade [3]: Grade- 2; also recorded: Grade- 3 | Score: Apoptosis [3]: 3 (7×) and 2 | Score: Connective tissue stroma [3]: 3 (2×) and 2 (5×) and 1 | Score: Grade [3]: 2 (5×) and 3 (3×) | Score: Lipid content [3]: 3 (4×) and 2 and 1 (3×) | Score: N:C ratio [3]: 2 | Score: Volume Tumor [3]: 4 (>1500) and 1 (<500) (2×) and 2 (500-1000) (2×) and 3 (1000-1500) (3×) | tumor reduction in relation to the negative control ([4]; day 20): 41.3±11.1% | tumor reduction in relation to the negative control ([4]; day 22): 31.1±13.4% | Volume (tumor) ([4]; individual animals, G3 APT20TTMG, G2 TMZ): Volume 1593.8; also recorded: Volume 113.1; also recorded: Volume 937.9; also recorded: Volume 339.1; also recorded: Volume 1447.2; also recorded: Volume 830.6; also recorded: Volume 1277.9; also recorded: Volume 1479.7 | Score: Mitotic figures [5]: 3 (4×) and 1 (4×)
